The test system of data set [1] is HUVECs. Description: MTS toxicity (cell viability) assay in HUVECs. The settings on record: 24 h, control 2.33 ± 0.06 O.D., mean ± SEM. The data set is classed as cell-based, human. The procedure:
(§1) Human umbilical vein endothelial cells (HUVECs) were obtained from the ScienceCell Research Labs (San Diego, CA, USA), HUVECs were seeded on plates coated with 0.2% gelatin (Sigma-Aldrich, Sintra, Portugal) and cultured in M199 medium (Sigma-Aldrich, Sintra, Portugal) supplemented with 20% fetal bovine serum (FBS) (Invitrogen Life Technologies, Scotland, UK), 1% penicillin/streptomycin (Invitrogen Life Technologies), 0.01% heparin (Sigma-Aldrich), and […] endothelial cell growth supplement (Biomedical Technologies Inc., MA, USA) and maintained at 37°C in a humidified 5% carbon dioxide atmosphere. Cells were kept between passages 3 and 8 for every experiment. The test compounds were dissolved in DMSO and added to cell cultures at a concentration of 0.1–10 μM. Incubations were performed for 24 h in medium supplemented with 2% FBS, 1% penicillin/streptomycin, and 60 ng/mL of the vascular endothelial growth factor (Sigma-Aldrich, Sintra, Portugal). Control cells were incubated with vehicle (DMSO at 0.1% in every culture).
HUVECs (2 × 10^5 cells/mL) were allowed to grow for 24 h and then incubated with the test compounds at a range concentration between 0.1 and 10 μM or control (0.1% DMSO) for 24 h. After the incubation period, cells were washed and their viability was assessed using Cell Titer 96 Aqueous ONE Solution Reagent MTS [3-(4,5-dimethylthiazol-2-yl)-5-(3-carboxymethoxyphenyl)-2-(4-sulfophenyl)-2H-tetrazolium] colorimetric assay (Promega, Madison, USA), according to the instructions provided by the manufacturer and as previously described. Optical density was measured at 492 nm. Three independent experiments were performed, and the results were expressed as mean ± SEM.

Data set [2] has as its system HUVECs. Description: TUNEL cell apoptosis assay in HUVECs. It is filed as cell-based, human. The settings on record: 24 h; for Effect on apoptosis (TUNEL): 0.1, 0.5 and 1 μM, statistical significance only for 2a at the highest concentration. Here is the method: as §1
HUVECs (6 × 10^4 cells/mL) were grown for 24 h on glass coverslips and incubated with different concentrations (0.1–1 μM) of the tested compounds. TUNEL assay was performed using the In Situ Cell Death Detection kit (Roche Diagnostics, Mannheim, Germany), according to the manufacturer's instruction and as previously reported. Immunofluorescence was visualized under a fluorescence microscope (Olympus, BH-2, UK). The percentage of stained cells was evaluated by counting the cells stained with TUNEL (apoptotic cells) divided by the total number of nuclei counterstained with DAPI (Invitrogen, CA, USA) at a 200x magnification field. One thousand nuclei were evaluated. Results were expressed as percentage of control (100%).

In data set [3] the test system is phosphorylated (activated) VEGFR-2. Description: Western blotting of phosphorylated (active) and total VEGFR-2 in HUVECs. It is filed as cell-based, human. The settings on record: 1 μM, normalized with total VEGFR-2. Here is the method: as §1
Proteins were isolated from HUVEC lysates using RIPA (Chemicon International, CA, USA). Proteins were quantified using a spectrophotometer (Jenway, 6405 UV/vis, Essex, UK), and 20 μg of protein were subjected to 8% SDS-PAGE with a 5% stacking gel. After electrophoresis, proteins were blotted into a Hybond nitrocellulose membrane (Amersham, Arlington, VA, USA). Immunodetection for total VEGFR-2 (1 : 1000; Cell Signaling, MA, USA), phosphorylated (activated) VEGFR-2 (1 : 750; Santa Cruz Biotechnology, CA, USA), and β-actin (1 : 3000; Abcam, Cambridge, UK) was accomplished with enhanced chemiluminescence (ECL kit, Amersham, Arlington, USA). […] The relative intensity of each protein blotting analysis was measured using a computerized software program (Bio-Rad, CA, USA), and the expression of activated and total VEGFR-2 were normalized with total VEGFR-2 and β-actin bands, respectively, to compare the expression of proteins in different treatment groups.
In general terms: A western blot detects proteins with antibodies after separation by electrophoresis.

The next data set has as its target T1, VEGFR-2 (Homo sapiens, UniProt P35968).
T1 construct: purchased Invitrogen
Description: VEGFR-2 enzymatic inhibition assay (Z'-LYTE-Tyr1 Peptide FRET kit). The data set is classed as biochemical. The settings on record: enzymatic FRET-based assay, 10 μM ATP; four separate determinations.

The values below come from article PMC3722775, “1-Aryl-3-[4-(thieno[3,2-d]pyrimidin-4-yloxy)phenyl]ureas as VEGFR-2 Tyrosine Kinase Inhibitors: Synthesis, Biological Evaluation, and Molecular Modelling Studies” (BioMed Research International, 2013).

A value given as a limit tells only on which side of the number the result lay.

T1 sequence (P35968 834-1162 limits assumed): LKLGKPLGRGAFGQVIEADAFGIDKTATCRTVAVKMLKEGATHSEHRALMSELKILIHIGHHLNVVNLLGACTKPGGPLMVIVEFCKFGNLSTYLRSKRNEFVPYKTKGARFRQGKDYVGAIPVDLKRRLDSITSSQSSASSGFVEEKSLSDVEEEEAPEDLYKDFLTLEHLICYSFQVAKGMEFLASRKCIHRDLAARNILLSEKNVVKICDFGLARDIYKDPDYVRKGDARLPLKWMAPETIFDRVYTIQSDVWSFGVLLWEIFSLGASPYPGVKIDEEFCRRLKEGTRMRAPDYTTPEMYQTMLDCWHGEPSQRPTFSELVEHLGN

In the case of `O=C(Nc1ccccc1)Nc1ccc(Oc2ncnc3ccsc23)cc1` [Compound 2a, 1-Phenyl-3-[4-(thieno[3,2-d]pyrimidin-4-yloxy)phenyl]urea], the figures for the “Viability of HUVEC (MTS optical density)” value in the data set with HUVECs [1] (5.0 μM) and with HUVECs [1] (10 μM) were 2.00 ± 0.06 O.D and 1.99 ± 0.03 O.D, respectively. In the data set with HUVECs [2], the “Effect on apoptosis (TUNEL)” value is “increase in apoptosis”. Also, the “Increase in apoptosis (TUNEL) comparing with untreated cells” value in the data set with HUVECs [2] (highest concentration tested (1 μM)) was determined as 32.8 ± 1.23%. For the same compound, in data set [3], the “Formation of the active (phosphorylated) form of VEGFR-2” value (shortened to “Formation of the active”) is “significantly decrease”. On VEGFR-2, this compound came in with an IC50 of 199 nM.
For `COc1ccc(NC(=O)Nc2ccc(Oc3ncnc4ccsc34)cc2)cc1` [Compound 2b, 1-(4-Methoxyphenyl)-3-[4-(thieno[3,2-d]pyrimidin-4-yloxy)phenyl]urea], the “Viability of HUVEC (MTS optical density)” value in the data set with HUVECs [1] (5.0 μM) came out at 1.84 ± 0.05 O.D; in the data set with HUVECs [1] (10 μM) it was 1.82 ± 0.04 O.D. Besides, the “Effect on apoptosis (TUNEL)” value with HUVECs [2] is “increase in apoptosis”. Also, the “Formation of the active” value in data set [3] was “significantly decrease”. At VEGFR-2, this compound yielded an IC50 of 188 nM.
In the case of `N#Cc1ccc(NC(=O)Nc2ccc(Oc3ncnc4ccsc34)cc2)cc1` [Compound 2c, 1-(4-Cyanophenyl)-3-[4-(thieno[3,2-d]pyrimidin-4-yloxy)phenyl]urea], the “Viability of HUVEC (MTS optical density)” value in the data set with HUVECs [1] (10 μM) turned out to be 1.96 ± 0.02 O.D. Further, the “Effect on apoptosis (TUNEL)” value in the data set on HUVECs [2] is listed as “increase in apoptosis”. In data set [3], the “Formation of the active” value is “did not significantly inhibit”. Further, it took 150 nM to reach half-maximal inhibition at VEGFR-2 (IC50).
The compound `Cc1csc2c(Oc3ccc(NC(=O)Nc4ccccc4)cc3)ncnc12` [Compound 2d, 1-Phenyl-3-[4-(7-Methylthieno[3,2-d]pyrimidin-4-yloxy)phenyl]urea] returned a melting point of 285.7 to 287.3 °C. For the same compound, the 50% inhibitory concentration (IC50) at VEGFR-2 is over 100000 nM.
For the compound `COc1ccc(NC(=O)Nc2ccc(Oc3ncnc4c(C)csc34)cc2)cc1` [Compound 2e, 1-(4-Methoxyphenyl)-3-[4-(7-methylthieno[3,2-d]pyrimidin-4-yloxy)phenyl]urea], the melting point is 248.4 to 249.6 °C. Also, at VEGFR-2, the half-inhibitory concentration (IC50) was over 100000 nM.
For the compound `Cc1csc2c(Oc3ccc(NC(=O)Nc4ccc(C#N)cc4)cc3)ncnc12` [Compound 2f, 1-(4-Cyanophenyl)-3-[4-(7-methylthieno[3,2-d]pyrimidin-4-yloxy)phenyl]urea], the half-inhibitory concentration (IC50) on VEGFR-2 was over 100000 nM.

As usually defined, the IC50 is the concentration that gives 50% inhibition. A higher IC50 goes with lower potency. The melting point is the temperature of the solid-liquid transition.
